According to patent US10857146B2, “Method for preventing or treating tumor diseases with a combination of tyrosine kinase inhibitor and CDK4/6 inhibitor” (Jiangsu Hengrui Medicine Co., Ltd., priority 2018, dated 2020):

Tests used:
[1] = tested on: C019 (HER2 inhibitor-sensitive gastric cancer PDX model); test: Drug resistance test in HER2 inhibitor-sensitive gastric cancer PDX model (C019); type: in vivo; conditions: C019 mice, 40 mg/kg intragastrically once a day
From the text: (§1) A large-scale patient-derived tumor xenograft (PDX) model was constructed with a small amount of advanced gastric cancer tissue obtained by real-time endoscopic biopsy, thereby establishing a PDX tissue library. The PDX tissue was taken from the PDX tissue library, revived and inoculated subcutaneously into the mice. […] The tumor tissue was separated, and re-inoculated into new mice. […] C019 represents the mice one month after subcutaneous inoculation of the revived PDX tissue, S019 represents the mice two weeks after the administration of the compound of formula (I) at a single dose of 20 mg/kg, and R019 represents the mice three months after the administration of the compound of formula (I) in a single dose of 40 mg/kg.
Protocol of the drug resistance test: the inhibitor group was administrated with the compound of formula (I) (intragastrically, once a day, in a single dose of 40 mg/kg), and the control group was administrated with an equal volume of normal saline. The tumor volume was measured every three days. The result of drug sensitivity of C019 and R019 models is shown in FIG. 1 (average value of five mice).

[2] = tested on: R019 (HER2 inhibitor-resistant gastric cancer PDX model); test: Drug resistance test and combination administration in HER2 inhibitor-resistant gastric cancer PDX model (R019); type: in vivo; conditions: R019 mice, 40 mg/kg intragastrically once a day
[3] = tested on: advanced gastric cancer PDX tissue; test: Construction of HER2 inhibitor-resistant PDX model by prolonged administration; type: in vivo, mice
From the text: as §1

SMILES: CCOc1cc2ncc(C#N)c(Nc3ccc(OCc4ccccn4)c(Cl)c3)c2cc1NC(=O)/C=C/[C@H]1CCCN1C [compound of formula (I)]
- drug sensitivity of the model [1]: highly sensitive
- tumor inhibition rate ([1]; average value of five mice): > 100%
- drug sensitivity of the model [2]: high resistance
- tumor response after prolonged administration ([3]; 20 mg/kg intragastrically once a day for three months): resistance
- tumor response after prolonged administration ([3]; re-inoculated tumor, 40 mg/kg intragastrically once a day for three months): complete resistance
